≈ marks a conversion by molar mass, not a printed value.
Assays:
[1] = tested on: Fibronectin secretion from skin SK-Mel-5 cells; test: Fibronectin secretion (Western blot), SK-MEL-5 cells; format: cell-based, human
[2] = tested on: Fibronectin secretion from ES2 cells; test: Fibronectin secretion (Western blot), ES2 cells; format: cell-based, human; conditions: 10 ug/ml; for inhibition at 10 µg/mL: Homo sapiens, ES-2, ES2 cells
Description: Inhibition of Fibronectin secretion is physiological and the determination of its quantity is based on the following criteria: • 1. Fibronectin is secreted from viable cells. Only cell with over 85% viable cells after drug-treatment are employed in these experiments. The viable cells were determined by MTT assay. • 2. For comparison, the immuno-band intensity from each samples are normalized with cell mass. The cell mass was determined by the MTT assay and is assigned as a MTT unit for each cell sample.
Cells: ES2 cells were grew in T-25 flask with RPMI 1640 medium over night before drug-treatment. Drug-treatment: cells cultures were replaced with fresh RPMI medium with Xanifolia-Y (10 ug/ml final concentration) or DMSO (as control) at 0 hour. At 1, 2, 4, 8 and 24 hour, aliquot of culture medium was taken out for Fibronectin determination. Fibronectin was determined by Western blot with monoclonal antibody (SIGMA) specific to human Fibronectin only.
Drug-treatment: cells cultures were replaced with fresh RPMI medium containing Xanifolia-Y (10 ug/ml final concentration) or DMSO (as control) at 0 hour. At 4 hours (A) or 8 hour (B), culture medium was replaced with fresh culture medium without drug. At 2, 4, 8 and 24 hour, aliquot of culture medium was taken out for Fibronectin determination. Fibronectin (FN) was determined by Western blot with monoclonal antibody (SIGMA) specific only to human Fibronectin.
(§1) Drug-treatment: cells cultures were replaced with fresh RPMI medium containing Xanifolia-Y (10 ug/ml final concentration) or DMSO (as control) at 0 hour. At 2, and 18 hour, aliquot of culture medium was taken out for Fibronectin determination (Western blot method). Cell viability at 18 hours was determined by MTT assay. Cultures were replaced with RPMI medium with MTT and incubated for an hour. The formation of formazan was dissolved in DMSO and OD at 570 nm was measured.
Cells and Drug-treatment: same as previous experiments. After 7 or 24 hours, aliquot of culture medium was taken out for Fibronectin determination (Western blot method). Cell viability at 24 hours was determined by MTT assay.
Cells: ES2 cells were grew in RPMI 1640 medium over night before drug-treatment. Drug-treatment: cells cultures were replaced with fresh RPMI medium containing DMSO (as control) [D]; Xanifolia-Y (10 ug/ml) [Y]; or Paclitaxel 10 or 50 ng/ml [T10, ro T50]. After 24 hours, aliquot of culture medium was taken out for Fibronectin determination (Western blot method). Cell viability at 24 hours was determined by MTT assay.
The amount of Fibronectin secreted by cells into medium was determined by Western blot assay. The amount of Fibronectin secreted per cells basis was determined by dividing the Western-band intensity with the MTT unit.
Western Blot: Spent culture medium (0.6 ml) was mixed with SDS sample buffer (0.2 ml), boiled for 3 minutes before loading to SDS gel. Samples (60 ul/lane) were applied to a 6% SDS gel and electrophoresis was conducted with 100 volts for 2 hours. Protein was transferred to a nitrocellulose paper electrophoretically (30 min at 100 volts). The Western blot was incubated with the first antibody (mouse anti-FN, specific to human FN, SIGMA F0916) and second antibody (Anti-mouse IgG AP conjugated, Promega S3721). The immunobands were developed with BCIP/NBT color development system (Promega S3771).

[3] = tested on: Fibronectin secretion from bladder carcinoma cells (HTB-9); test: Fibronectin secretion (Western blot), HTB-9 cells; format: cell-based, human; conditions: 10 ug/ml; for inhibition at 10 µg/mL: Homo sapiens
[4] = tested on: Fibronectin secretion from lung carcinoma cells (H460); test: Fibronectin secretion (Western blot), H460 cells; format: cell-based, human
[5] = tested on: Fibronectin secretion from liver HepG2 cells; test: Fibronectin secretion (Western blot), HepG2 cells; format: cell-based, human; conditions: 10 ug/ml; for inhibition at 10 µg/mL: Homo sapiens, HepG2, HepG2 cells
[6] = tested on: Fibronectin secretion from brain glioblastoma T98G cells; test: Fibronectin secretion (Western blot), T98G cells; format: cell-based, human
ovarian cancer cells = test: MTT assay, growth of ovarian cancer cells (FIG. 3A, 3B); format: cell-based; conditions: Homo sapiens, read-out: IC50, inhibiting growth of ovarian cancer cells
Description: (§2) Cells. Human cancer cell lines were obtained from American Type Culture Collection: HTB-9 (bladder), HeLa-S3 (cervix), DU145 (prostate), H460 (lung), MCF-7 (breast), K562 (leukocytes), HCT116 (colon), HepG2 (liver), U2OS (bone), T98G (brain), SK-MEL-5 (Skin) and OVCAR-3 (ovary). The cells were grown in following culture media: HeLa-53, DU145, MCF-7, Hep-G2 and T98G are in MEN (Earle's salts); HTB-9, H460, K562 and OVCAR-3 in RPMI-1640; HCT-116 and U2OS in McCoy-5A. They are supplemented with 10% fetal calf serum, glutamine and antibiotics, and incubated in an incubator with 5% CO2 humidified at 37° C.
(§3) MTT Assay. The procedure for MTT assay followed the method described by Carmichael et al. (1987) with modifications. […] The formazan (product of the reduction of tetrazolium by viable cells) formed and was dissolved with DMSO and the O.D. at 490 nm, and was measured by an ELISA reader. The MTT level of the cells before drug-treatment was also measured (T0). The % cell-growth (% G) is calculated as: % G=(TD−T0/TC−T0)×100(1), where TC or TD represents O.D. readings of control or drug-treated cells. When T0>TD, then the cytotoxicity (LC) expressed as % of the control is calculated as: % LC=(TD−T0/T0)×100(2).

tumor growth = test: MTT anticancer activity of Y, X and hydrolysis products (FIG. 4C); format: cell-based; conditions: FIG. 4C; read-out: IC50, inhibits tumor growth / anticancer activity
Description: (§4) MTT Assay. The procedure for MTT assay followed the method described by Carmichael et al. (1987) with modifications. The cells were seeded into a 96-well plate at concentration of 10,000/well for HTB-9, HeLa, H460, HCT116, T98G and OVCAR-3), 15,000/well for DU145, MCF-7, HepG2 and U2OS), and 40,000/well for K562 for 24 hours before drug-treatment. The cells were then exposed to the drugs for 48 hours (72 hours for HepG2 and U2OS, and 96 hours for MCF-7). After the drug-treatment, MTT (0.5 mg/mL) was added to cultures and incubated for an hour. The formazan (product of the reduction of tetrazolium by viable cells) formed and was dissolved with DMSO and the O.D. at 490 nm, and was measured by an ELISA reader. The MTT level of the cells before drug-treatment was also measured (T0). The % cell-growth (% G) is calculated as: % G=(TD−T0/TC−T0)×100(1), where TC or TD represents O.D. readings of control or drug-treated cells. When T0>TD, then the cytotoxicity (LC) expressed as % of the control is calculated as: % LC=(TD−T0/T0)×100(2).
(A) Alkaline Hydrolysis of Xanifolia-Y: 20 mg of Xanifolia-Y was dissolved in 0.5 mL of 1M NaOH. The solution was incubated in an 80° C. water bath for 4 hours. It was cooled to room temperature before being neutralized with 0.5 mL 1 N HCl (adjusted pH to about 3). The mixture was extracted with 2 mL 1-butanol 3 times. The butanol fractions were collected and lyophilized. The hydrolyzed saponin was further purified with HPLC in a C-18 column eluted with 25% acetonitrile.
(B) Acid Hydrolysis of Xanifolia-Y: 15 mg Xanifolia-Y was dissolved in 1 mL of Methanol. 1 mL of 2N HCl was then added. The mixture was refluxed in an 80° C. water bath for 5 hours. The solution was then neutralized by adding 2 mL of 1N NaOH (to a final pH 3-4). The aglycone was then extracted with ethylacetate 3 mL×3. The extracts were collected and pooled. Further isolation of aglycone (sugar-removed Xanifolia-Y) was achieved by HPLC with isocratic elution of 80% acetonitrile.

(Skin) SK-MELS = test: MTT assay SK-MEL-5; format: cell-based, human
Description: as §2, §3

(Prostate) DU145 = test: MTT assay DU145; format: cell-based, human
Description: as §2, §3

ES2(ovarian) cells = test: MTT assay ES2; format: cell-based, human; conditions: ES2 cells
Description: as §4
Methods: ES2 cells were exposed to (i) Xanifolia-Y with concentrations of 40, 20, 10, 5, 2.5, and 1.25 ug/ml; or (ii) Paclitaxel with concentrations of […]; or (iii) Combined Xanifolia-Y and Paclitaxel with concentrations of each drug in same order (for example, 40 ug/ml Y plus 10 ng/ml T; 20 ug/ml Y plus 5 ng/ml T, etc. please see FIG. 28). Cells growth under these conditions was determined by the MTT assay.
as §1

[7] = tested on: (bladder)TB9 cells / HTB-9; test: MTT assay bladder cells; format: cell-based, human; conditions: (bladder)TB9 cells
Description: as §2, §4

(Breast)MCF7 = test: MTT assay MCF7; format: cell-based, human
Description: as §2, §3

(Liver) HepG2 = test: MTT assay HepG2; format: cell-based, human
Description: as §2, §3

[8] = Homo sapiens, NCI-H460, H460 cells, 10 ug/ml

| Compound | inhibition at 10 µg/mL ([1]; Homo sapiens, 10 ug/ml) [%] | inhibition at 10 µg/mL [2] [%] | inhibition at 10 µg/mL [3] [%] | inhibition at 10 µg/mL [4, 8] [%] | inhibition at 10 µg/mL [5] [%] | inhibition at 10 µg/mL ([6]; Homo sapiens, 10 ug/ml) [%] | other results |
| --- | --- | --- | --- | --- | --- | --- | --- |
| C/C=C(/C)C(=O)O[C@H]1[C@H](OC(=O)C(C)C)[C@@]2(CO)C(CC1(C)C)C1=CCC3[C@@]4(C)CC[C@H](O[C@@H]5OC(C(=O)O)[C@@H](O)C(O[C@@H]6O[C@@H](CO)C(O)C6O)C5O[C@@H]5OC(CO)[C@H](O)C(O)C5O)C(C)(C)C4CC[C@@]3(C)[C@]1(C)[C@@H](O)[C@H]2O (stereo partly drawn) [Xanifolia Y0, 3-O-[β-D-galactopyranosyl(1→2)]-α-L-arabinofuranosyl(1→3)-β-D-glucuronopyranosyl-21-O-angeloyl, 22-O-(2-methylpropanoyl)-3β, 15α, 16α, 21β, 22α, 28-hexahydroxyolean-12-ene] | 27 | 34 | 32 | 22 | 40 | 22 |  |
| C/C=C(/C)C(=O)O[C@@H]1C(O)[C@H](O[C@H]2[C@H](OC(C)=O)[C@@]3(CO)C(CC2(C)C)C2=CCC4[C@@]5(C)CC[C@H](O[C@@H]6OC(C(=O)O)[C@@H](O)[C@@H](O[C@@H]7O[C@@H](CO)[C@@H](O)C7O)C6O[C@@H]6OC(CO)[C@H](O)[C@@H](O)C6O)C(C)(C)C5CC[C@@]4(C)[C@]2(C)C[C@H]3O)OC(C)[C@@H]1OC(=O)/C(C)=C\C (stereo partly drawn) [Xanifolia Y1, 3-O-[β-D-galactopyranosyl (1→2)]-α-L-arabinofuranosyl (1→3)-β-D-glucuronopyranosyl-21-O-(3,4-diangeloyl)-α-L-rhamnophyranosyl-22-O-acetyl-3β,16α, 21β, 22α, 28-pentahydroxyolean-12-ene] | 10 | 41 | 50 | 13 | 33 | 40 |  |
| C/C=C(/C)C(=O)O[C@H]1[C@H](OC(C)=O)C(C)(C)CC2C3=CCC4[C@@]5(C)CC[C@H](O[C@@H]6OC(C(=O)OCCCC)[C@@H](O)C(O[C@@H]7O[C@@H](CO)C(O)C7O)C6O[C@@H]6OC(CO)[C@H](O)C(O)C6O)C(C)(C)C5CC[C@@]4(C)[C@]3(C)C[C@@H](O)[C@]21CO (stereo partly drawn) [X, 3-O-{[β-D-galactopyranosyl (1→2)]-[α-L-arabinofuranosyl (1→3)]-β-D-glucuronopyranosidebutyl ester}-21-O-acetyl-22-O-angeloyl-3β,16α,21β,22α,28-pentahydroxyolean-12-ene] |  | 39 | 38 |  | 42 |  | inhibition at 20 µg/mL ([1]; Homo sapiens, 20 ug/ml): 15%; inhibition at 20 µg/mL ([4]; Homo sapiens, NCI-H460, H460 cells, 20 ug/ml): 37%; IC50 (ovarian cancer cells): 30 µg/mL (≈ 26.3 µM); inhibition at 20 µg/mL ([6]; Homo sapiens, T98G, 20 ug/ml): 52%; IC50 (tumor growth): 6 µg/mL (≈ 5.26 µM) |
| CC=C(C)C(=O)OC1C(OC(=O)C(C)=CC)C23C(O)CC4(C)C5(C)CCC6C(C)(C)C(OC7OC(C(=O)O)C(O)C(OC8OC(CO)C(O)C(O)C8OC8OC(C)C(O)C(O)C8OC8OC(C)C(O)C(O)C8O)C7OC7OC(CO)C(O)C(O)C7O)CCC6(C)C5CCC4(OC2O)C3CC1(C)C (centres unmarked) [Mb5] |  |  |  |  |  |  | IC50 ((Skin) SK-MELS): 25 µg/mL (≈ 17.1 µM); % inhibition of Fibronectin secretion ([1]; 10 ug/ml): 15%; % inhibition of Fibronectin secretion ([2]; ES2 cells): 35%; IC50 ((Prostate) DU145): 7.6 µg/mL (≈ 5.19 µM); % inhibition of Fibronectin secretion [3]: 28%; % inhibition of Fibronectin secretion ([4]; H460 cells, 10 ug/ml): 25%; IC50 (ES2(ovarian) cells): 6.5 µg/mL (≈ 4.44 µM); IC50 [7]: 6.5 µg/mL (≈ 4.44 µM); % inhibition of Fibronectin secretion ([5]; HepG2 cells): 35%; % inhibition of Fibronectin secretion ([6]; 10 ug/ml): 33%; IC50 ((Breast)MCF7): 11 µg/mL (≈ 7.52 µM); IC50 ((Liver) HepG2): 6.5 µg/mL (≈ 4.44 µM) |
| C/C=C(/C)C(=O)O[C@H]1[C@H](OC(=O)/C(C)=C\C)[C@@]2(CO)C(CC1(C)C)C1=CCC3[C@@]4(C)CC[C@H](O[C@@H]5OC(C(=O)O)[C@@H](O)C(O[C@@H]6OC[C@@H](O)C(O)C6O)C5O[C@@H]5OC(CO)[C@H](O)C(O)C5O)C(C)(C)C4CC[C@@]3(C)[C@]1(C)C[C@H]2O (some centres unmarked) [Ba1] | 10 | 30 | 25 | 19 | 33 | 26 |  |

— patent US10213451B2, “Methods and compounds for modulating the secretion or expression of adhesion proteins or angiopoietins of cells” (PACIFIC ARROW LIMITED, priority 2004, dated 2019)
